# Measured values as given in publication PMC7549094 (Journal of Medicinal Chemistry, 2020).
# Columns and labels:
# [1] = pharmacokinetics, summary across preclinical species; format: in vivo, rat, dog, cynomolgus monkey
# [2] = target: hr NET (Homo sapiens, UniProt P23975); experiment: receptor profile (Table S4); format: binding
# [3] = target: BSEP (Homo sapiens, UniProt O95342); experiment: receptor profile (Table S4), second BSEP line; settings: human
# [4] = target: hr BSEP (Homo sapiens, UniProt O95342); experiment: receptor profile (Table S4), second BSEP line; settings: hr BSEP, second line
# [5] = tested on: T. brucei bloodstream form overexpressing PSMB5 Y113F; experiment: growth inhibition of T. brucei overexpressing PSMB5 Y113F; format: cell-based
# Description: Generation of T. brucei strains ectopically expressing proteasome β4 and β5 subunit variants
# All the T. brucei proteasome mutants were generated by following protocols described earlier (Khare et
# assembly technology (NEBuilder high fidelity DNA assembly cloning kit). The sense (5′-
# Y113F gene was generated from the wild-type PSMB5 construct by site-directed mutagenesis using
# mutagenic sense (5′- [sequence]tcgta[sequence]-3′), antisense (5′-
# [sequence]-3′) primers and QuikChange II Site-Directed Mutagenesis Kit
# (Stratagene). The sequences of the wild-type and mutant PSMB5 genes were verified by sequencing and
# both gene versions were cloned into the T. brucei expression vector pHD1034 under control of a
# ribosomal RNA promoter. Transfected T. brucei Lister 427 cells were selected in medium supplemented
# with puromycin at 1 μg/ml. Susceptibility of transfected T. brucei cell lines to compounds was assessed
# after 2 days of compound treatment. Parasite viability was determined with CellTiter-Glo. All assays were
# carried out in three biological replicates. Reported EC50 values for T. brucei parasites ectopically
# expressing PSMB5 proteins were calculated from three technical replicates.
# inhibition of T. brucei bloodstream form constitutively overexpressing wild -type PSMB5 or PSMBY113F
# [6] = target: T1, hr PR antag (Homo sapiens, UniProt P06401); experiment: receptor profile (Table S4); format: biochemical
# T1 sequence (P06401 1-933): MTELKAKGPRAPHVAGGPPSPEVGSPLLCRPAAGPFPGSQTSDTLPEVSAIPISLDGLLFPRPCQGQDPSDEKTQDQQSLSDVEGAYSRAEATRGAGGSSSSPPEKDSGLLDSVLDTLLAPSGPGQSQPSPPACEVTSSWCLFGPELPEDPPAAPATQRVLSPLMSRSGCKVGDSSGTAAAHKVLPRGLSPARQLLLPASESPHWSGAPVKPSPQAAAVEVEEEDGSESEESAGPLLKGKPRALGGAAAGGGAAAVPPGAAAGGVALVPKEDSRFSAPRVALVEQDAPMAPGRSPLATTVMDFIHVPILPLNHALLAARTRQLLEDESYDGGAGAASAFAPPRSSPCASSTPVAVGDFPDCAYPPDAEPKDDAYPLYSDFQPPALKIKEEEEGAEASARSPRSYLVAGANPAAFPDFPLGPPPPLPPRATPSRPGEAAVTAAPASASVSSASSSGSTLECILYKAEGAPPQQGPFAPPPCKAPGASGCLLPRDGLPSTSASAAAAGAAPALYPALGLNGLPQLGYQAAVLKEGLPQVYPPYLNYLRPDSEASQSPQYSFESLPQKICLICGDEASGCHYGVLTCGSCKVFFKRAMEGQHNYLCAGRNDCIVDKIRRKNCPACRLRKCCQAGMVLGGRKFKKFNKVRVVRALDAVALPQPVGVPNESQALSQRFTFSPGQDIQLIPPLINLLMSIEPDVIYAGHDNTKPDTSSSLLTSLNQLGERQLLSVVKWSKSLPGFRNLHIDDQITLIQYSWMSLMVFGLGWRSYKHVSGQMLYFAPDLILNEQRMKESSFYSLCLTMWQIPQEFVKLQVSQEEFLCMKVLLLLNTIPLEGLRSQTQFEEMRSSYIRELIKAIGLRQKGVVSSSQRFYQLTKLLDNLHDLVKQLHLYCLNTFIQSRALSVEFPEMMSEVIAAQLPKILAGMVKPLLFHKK
# [7] = microsomal extraction ratio, 1 h incubation in microsomes
# [8] = tested on: hr GABAA antag
# [9] = target: PXR (Homo sapiens, UniProt O75469); experiment: receptor profile (Table S4); settings: human
# [10] = target: hr PXR ag (Homo sapiens, UniProt O75469); experiment: receptor profile (Table S4); settings: hr PXR ag
# [11] = Balb/C mice, 20 mg/kg PO; dose-normalized
# Protocol: In Vivo PK Studies in Mice.
# The solution was filtered using a 0.45 m syringe filter before dosing. Two male Balb/c mice were administered 1 intravenously via the lateral tail
# vein at 5 mg/kg with a dose volume of 2.0 mL/kg. 1 was also formulated in a suspension of 0.5%
# methylcellulose with 0.5% Tween 80 (0.5% MC/0.5% Tw80) in water at 2.5 mg/mL. A group of mice
# (n=3) were administered 1 orally via gavage at 20 mg/kg with a dose volume of 8.0 mL/kg.
# The mouse blood samples were centrifuged to separate plasma and the plasma samples were frozen at -
# In Vivo PK Studies in Rats.
# Two male Wistar rats were administered
# 1 intravenously via the lateral tail vein at 3 mg/kg with a dose volume of 1.0 mL/kg. 1 was also formulated
# in a suspension of 0.5% methylcellulose with 0.5% Tween 80 (0.5% MC/0.5% Tw80) in water at 2.0
# mg/mL. The second group of rats (n=3) were administered 1 orally via gavage at 10 mg/kg in suspension
# with a dose volume of 5.0 mL/kg. Six blood samples of 100 μL each were collected serially from each
# animal via the saphenous vein up to 24 hours after dosing. The rat blood samples were centrifuged to
# separate plasma and the plasma samples were frozen at -20°C until analysis.
# In Vivo PK Studies in Dogs.
# The solution was filtered using a 0.45 m syringe filter before dosing. Three male Beagle dogs were administered 1 intravenously via saphenous
# vein at 0.3 mg/kg with a dose volume of 0.1 mL/kg. 1 was also formulated in a suspension of 0.5%
# methylcellulose with 0.5% Tween 80 (0.5%MC/0.5% Tween 80) in water at 1.0 mg/mL. The second
# group of male dogs (n=2) were administered 1- orally via gavage at 1.0 mg/kg with a dose volume of 1.0
# mL/kg. Seven blood samples of 250 µL each were collected serially from each animal via the jugular vein
# The dog blood samples were centrifuged to separate plasma and the plasma
# samples were frozen at -20 °C until analysis.
# [12] = target: hr 5-HT2B antag (Homo sapiens, UniProt P41595); experiment: receptor profile (Table S4); format: biochemical
# [13] = target: hr CB1 antag (Homo sapiens, UniProt P21554); experiment: receptor profile (Table S4); format: biochemical
# [14] = target: hr 5-HT2A ag (Homo sapiens, UniProt P28223); experiment: receptor profile (Table S4); format: biochemical
# [15] = target: T2, hr PPARg antag (Homo sapiens, UniProt P37231); experiment: receptor profile (Table S4); format: biochemical
# T2 sequence (P37231 1-505): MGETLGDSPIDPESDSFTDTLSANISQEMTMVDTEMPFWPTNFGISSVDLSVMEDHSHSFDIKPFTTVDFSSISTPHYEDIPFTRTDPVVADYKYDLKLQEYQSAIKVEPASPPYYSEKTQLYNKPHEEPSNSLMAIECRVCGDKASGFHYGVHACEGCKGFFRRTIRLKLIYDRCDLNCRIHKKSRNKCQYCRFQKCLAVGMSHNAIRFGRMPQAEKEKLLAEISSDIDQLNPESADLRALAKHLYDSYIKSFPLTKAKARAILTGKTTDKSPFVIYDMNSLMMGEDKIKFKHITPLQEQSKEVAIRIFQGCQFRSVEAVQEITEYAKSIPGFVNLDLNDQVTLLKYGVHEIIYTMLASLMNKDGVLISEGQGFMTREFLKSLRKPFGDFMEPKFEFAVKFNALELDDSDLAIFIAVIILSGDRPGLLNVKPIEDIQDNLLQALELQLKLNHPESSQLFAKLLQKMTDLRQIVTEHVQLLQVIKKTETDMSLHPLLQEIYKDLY
# Sequence of hr CB1 antag (P21554 whole entry): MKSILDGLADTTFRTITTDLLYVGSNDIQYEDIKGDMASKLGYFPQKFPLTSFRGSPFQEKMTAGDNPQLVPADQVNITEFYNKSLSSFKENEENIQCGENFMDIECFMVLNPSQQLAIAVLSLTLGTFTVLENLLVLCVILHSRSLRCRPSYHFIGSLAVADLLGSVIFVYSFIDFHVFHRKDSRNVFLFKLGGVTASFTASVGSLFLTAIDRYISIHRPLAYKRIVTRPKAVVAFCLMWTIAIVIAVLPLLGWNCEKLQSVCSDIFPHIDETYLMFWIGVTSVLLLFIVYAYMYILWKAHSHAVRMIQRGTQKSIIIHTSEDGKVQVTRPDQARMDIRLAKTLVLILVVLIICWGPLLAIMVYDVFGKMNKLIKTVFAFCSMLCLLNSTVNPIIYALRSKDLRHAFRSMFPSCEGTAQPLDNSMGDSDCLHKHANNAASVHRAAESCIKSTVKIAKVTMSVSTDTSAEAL
# Sequence of hr 5-HT2A ag (P28223 whole entry): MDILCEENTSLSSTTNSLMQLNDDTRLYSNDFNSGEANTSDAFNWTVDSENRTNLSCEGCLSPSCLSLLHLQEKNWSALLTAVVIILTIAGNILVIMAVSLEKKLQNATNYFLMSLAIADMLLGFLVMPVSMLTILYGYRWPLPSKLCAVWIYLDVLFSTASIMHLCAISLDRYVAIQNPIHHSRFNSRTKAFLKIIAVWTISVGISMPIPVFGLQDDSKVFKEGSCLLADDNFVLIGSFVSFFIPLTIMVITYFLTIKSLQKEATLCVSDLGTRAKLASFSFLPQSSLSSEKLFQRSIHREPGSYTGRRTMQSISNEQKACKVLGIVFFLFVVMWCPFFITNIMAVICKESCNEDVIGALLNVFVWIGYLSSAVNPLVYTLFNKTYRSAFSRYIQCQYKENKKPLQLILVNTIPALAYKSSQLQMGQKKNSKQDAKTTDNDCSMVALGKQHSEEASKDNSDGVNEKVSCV
# Sequence of hr NET (P23975 whole entry): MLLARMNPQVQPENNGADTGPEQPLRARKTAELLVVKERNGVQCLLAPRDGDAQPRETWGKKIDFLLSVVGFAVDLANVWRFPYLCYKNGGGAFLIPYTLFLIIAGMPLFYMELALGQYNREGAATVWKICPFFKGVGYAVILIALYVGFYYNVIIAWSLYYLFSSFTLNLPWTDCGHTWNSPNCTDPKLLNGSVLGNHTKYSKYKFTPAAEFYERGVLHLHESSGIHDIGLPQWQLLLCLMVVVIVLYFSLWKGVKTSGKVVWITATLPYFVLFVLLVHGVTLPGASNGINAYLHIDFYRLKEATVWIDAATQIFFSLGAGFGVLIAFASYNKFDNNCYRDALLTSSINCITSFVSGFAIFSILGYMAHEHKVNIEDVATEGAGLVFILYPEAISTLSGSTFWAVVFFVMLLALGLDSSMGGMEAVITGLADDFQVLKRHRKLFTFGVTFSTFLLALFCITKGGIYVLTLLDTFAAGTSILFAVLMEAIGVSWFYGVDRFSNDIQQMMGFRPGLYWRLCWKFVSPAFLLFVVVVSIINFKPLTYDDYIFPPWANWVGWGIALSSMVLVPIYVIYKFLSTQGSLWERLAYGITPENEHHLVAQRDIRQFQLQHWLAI
# Sequence of hr 5-HT2B antag (P41595 whole entry): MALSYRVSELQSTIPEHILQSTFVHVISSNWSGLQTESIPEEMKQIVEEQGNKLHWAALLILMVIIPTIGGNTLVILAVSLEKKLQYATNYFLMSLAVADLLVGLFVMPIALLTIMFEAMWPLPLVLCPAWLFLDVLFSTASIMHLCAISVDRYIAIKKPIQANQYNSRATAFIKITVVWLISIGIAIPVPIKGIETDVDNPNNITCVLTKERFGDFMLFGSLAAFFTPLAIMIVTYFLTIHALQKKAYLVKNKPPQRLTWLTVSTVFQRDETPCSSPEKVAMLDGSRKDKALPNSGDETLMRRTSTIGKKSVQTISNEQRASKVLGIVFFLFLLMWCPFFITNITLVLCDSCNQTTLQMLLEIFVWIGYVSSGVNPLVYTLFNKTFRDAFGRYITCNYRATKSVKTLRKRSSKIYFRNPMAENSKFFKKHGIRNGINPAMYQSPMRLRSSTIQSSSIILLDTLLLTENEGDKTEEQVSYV
# Sequence of BSEP (O95342 whole entry): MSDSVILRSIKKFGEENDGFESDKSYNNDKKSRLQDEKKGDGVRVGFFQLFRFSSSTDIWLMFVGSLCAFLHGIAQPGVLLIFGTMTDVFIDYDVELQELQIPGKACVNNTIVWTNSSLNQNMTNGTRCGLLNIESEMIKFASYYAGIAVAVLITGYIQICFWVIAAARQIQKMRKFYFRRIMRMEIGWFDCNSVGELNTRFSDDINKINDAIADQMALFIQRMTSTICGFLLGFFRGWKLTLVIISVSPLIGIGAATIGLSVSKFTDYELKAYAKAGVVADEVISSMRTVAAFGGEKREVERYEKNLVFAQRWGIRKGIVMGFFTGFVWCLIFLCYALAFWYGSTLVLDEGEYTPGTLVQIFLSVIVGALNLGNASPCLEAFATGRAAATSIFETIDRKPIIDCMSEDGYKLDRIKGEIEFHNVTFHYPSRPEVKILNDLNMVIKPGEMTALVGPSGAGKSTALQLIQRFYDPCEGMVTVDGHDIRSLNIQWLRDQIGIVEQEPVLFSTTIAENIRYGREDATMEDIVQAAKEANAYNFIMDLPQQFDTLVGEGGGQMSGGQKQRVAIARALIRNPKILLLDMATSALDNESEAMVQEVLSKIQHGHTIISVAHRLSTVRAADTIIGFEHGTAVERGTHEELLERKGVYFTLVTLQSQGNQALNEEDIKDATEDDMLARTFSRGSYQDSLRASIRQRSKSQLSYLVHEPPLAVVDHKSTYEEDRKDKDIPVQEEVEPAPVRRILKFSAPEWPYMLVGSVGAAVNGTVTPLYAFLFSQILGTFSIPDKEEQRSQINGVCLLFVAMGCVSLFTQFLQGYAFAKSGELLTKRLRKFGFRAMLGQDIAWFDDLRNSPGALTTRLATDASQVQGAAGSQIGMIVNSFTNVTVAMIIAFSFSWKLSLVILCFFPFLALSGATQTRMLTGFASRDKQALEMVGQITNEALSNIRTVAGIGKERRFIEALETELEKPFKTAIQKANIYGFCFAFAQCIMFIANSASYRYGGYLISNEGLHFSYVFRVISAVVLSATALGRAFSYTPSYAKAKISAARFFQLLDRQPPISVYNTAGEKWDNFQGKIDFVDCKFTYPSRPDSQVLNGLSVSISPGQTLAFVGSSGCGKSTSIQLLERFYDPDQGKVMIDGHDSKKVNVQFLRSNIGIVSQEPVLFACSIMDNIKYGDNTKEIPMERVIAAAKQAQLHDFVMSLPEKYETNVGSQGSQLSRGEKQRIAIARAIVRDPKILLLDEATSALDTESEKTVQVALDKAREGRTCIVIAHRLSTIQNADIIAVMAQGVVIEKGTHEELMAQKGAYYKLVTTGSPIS
# Sequence of hr PXR ag (O75469 whole entry): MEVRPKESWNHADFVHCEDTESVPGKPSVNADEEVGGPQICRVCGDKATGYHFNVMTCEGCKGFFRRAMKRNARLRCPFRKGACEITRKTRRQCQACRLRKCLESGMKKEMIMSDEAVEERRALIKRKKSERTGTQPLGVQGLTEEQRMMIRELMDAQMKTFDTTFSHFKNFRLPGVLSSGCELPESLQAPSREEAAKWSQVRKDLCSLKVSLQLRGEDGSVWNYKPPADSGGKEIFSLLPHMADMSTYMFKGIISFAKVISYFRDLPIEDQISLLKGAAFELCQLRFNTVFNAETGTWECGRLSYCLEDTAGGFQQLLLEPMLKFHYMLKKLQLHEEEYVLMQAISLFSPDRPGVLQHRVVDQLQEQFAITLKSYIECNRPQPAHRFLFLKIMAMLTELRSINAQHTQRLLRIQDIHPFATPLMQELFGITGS
# Sequence of PXR (O75469 whole entry): as above
# Sequence of hr BSEP (O95342 whole entry): as the sequence (O95342 whole entry) above
structure (smiles),measurement,setting,value
"Cc1nc(C)c(C(=O)Nc2ccc(F)c(-c3nc4ncc(-c5ncccc5C)cn4n3)c2)o1 [compound 1, N-(4-Fluoro-3-(6-(3-methylpyridin-2-yl)-[1,2,4]triazolo[1,5-a]pyrimidin-2-yl)phenyl)-2,4-dimethyloxazole-5-carboxamide]",bioavailability,"[1]; Balb/c (mouse), Wistar (rat), beagle (dog), rat, dog, cynomolgus monkey, in vivo, po, across the tested species, conventional suspension formulations",27 to 67%
same,half-life,"[1]; male, Balb/c (mouse), Wistar (rat), beagle (dog), rat, dog, cynomolgus monkey, in vivo, across species following IV administration, read-out: plasma terminal half-life",3 to 10 h
same,CL as % of hepatic blood flow,"[1]; mouse, rat, and monkey, IV, fumarate salt",2–17 % of hepatic blood flow
same,EC50/IC50,[2]; hr NET,> 30 µM
same,inhibition at 10 µM,[2]; read-out: % inh/act @ 10 µM,19%
same,inhibition at 30 µM,[2]; read-out: % inh/act @ 30 µM,24%
same,inhibition at 10 µM,[3],40%
same,inhibition at 30 µM,[3],56%
same,EC50/IC50,[4],17 µM
same,effect of β5 Y113F mutation of T. brucei proteasome on activity,"[5]; T. brucei, β5 Y113F",loss of activity
same,EC50,"[5]; Trypanosoma brucei, 48 h, read-out: EC50, T. brucei growth",3.3 µM
same,EC50/IC50,[6]; hr PR antag,> 30 µM
same,inhibition at 10 µM,[6]; read-out: % inh/act @ 10 µM,-11%
same,inhibition at 30 µM,[6]; read-out: % inh/act @ 30 µM,-5%
same,ER human,[7],0.27
same,% inh/act @ 10 µM,[8],-5%
same,% inh/act @ 30 µM,[8],-4%
same,inhibition at 10 µM,[9],0%
same,EC50/IC50,[10],> 30 µM
same,DN AUC PO,[11],7.5 µM·h
same,DN Cmax PO,[11],800 nM
same,EC50/IC50,[12]; hr 5-HT2B antag,> 30 µM
same,inhibition at 10 µM,[12]; read-out: % inh/act @ 10 µM,22%
same,inhibition at 30 µM,[12]; read-out: % inh/act @ 30 µM,24%
same,EC50/IC50,[13]; hr CB1 antag,> 30 µM
same,inhibition at 10 µM,[13]; read-out: % inh/act @ 10 µM,-47%
same,inhibition at 30 µM,[13]; read-out: % inh/act @ 30 µM,-57%
same,EC50/IC50,[14]; hr 5-HT2A ag,> 30 µM
same,inhibition at 10 µM,[14]; read-out: % inh/act @ 10 µM,-7%
same,inhibition at 30 µM,[14]; read-out: % inh/act @ 30 µM,-10%
same,EC50/IC50,[15]; hr PPARg antag,> 30 µM
same,inhibition at 10 µM,[15]; read-out: % inh/act @ 10 µM,-5%
same,inhibition at 30 µM,[15]; read-out: % inh/act @ 30 µM,16%
